Data from patent US10813944B2, “Cyclodextrins as procoagulants” (STICHTING SANQUIN BLOEDVOORZIENING, priority 2016, dated 2020).

Key:
Hemophilia A mice = assay: In vivo vena saphena bleeding model in hemophilia A mice
Description: FIG. 30: Effect of OKL-1111 and OKL-1187 on coagulation in mouse hemophilia A assay.
All animal protocols were approved by the Institutional Animal Care and Use Committee of the University of North Carolina. C57BL6/J mice were purchased from Charles Rivers Laboratories (Willmington, Mass.). Bleeding studies were done essentially as previously described Pastoft et al. (Haemophilia 2012; 18:782-8). Mice were anesthetized with isoflurane throughout all procedures. The hair on the ventral side of both hind limbs was removed. The animals were placed supine on a temperature and ECG monitoring board. The paws were gently restrained by looping soft polyethylene tubing around them and attaching the tubing to the ECG board. The skin on the left and right ventral hind limb was incised which exposes a length of the saphenous neurovascular bundle; the bundle was covered with normal saline to prevent drying. To assess haemostasis, the right saphenous vein was transected by piercing it with a 23-G needle followed by a longitudinal incision made in the distal portion of the vessel. Blood was gently wicked away until haemostasis occurred. The clot was then removed to restart bleeding and the blood was again wicked away until haemostasis occurs again. […] Two parameters were measured: 1) the number of times that haemostasis occurs in a 30 minute period, and 2) the time required for each haemostasis. […]

[1] = tested on: normal human plasma pretreated with inhibitory antibodies against factor VIII; assay: Thrombin generation in normal plasma spiked with inhibitory antibodies against factor VIII; format: biochemical; conditions: antibody VK34 14 μg/ml; 1 pM TF
Experimental: (§1) The Calibrated Automated Thrombogram® assays the generation of thrombin in clotting plasma using a microtiter plate reading fluorometer (Fluoroskan Ascent, ThermoLab systems, Helsinki, Finland) and Thrombinoscope® software (Thrombinoscope BV, Maastricht, The Netherlands). The assay was carried out as described by Hemker et al. (Pathofysiol. IIaemost. Thromb. 2003, 33, 4-15), and the Thrombinoscope® manual. Coagulation was triggered by recalcification in the presence of 1 or 5 pM recombinant human tissue factor (Innovin®, Siemens, Marburg, Germany), 4 μM phospholipids, and 417 μM fluorogenic substrate Z-Gly-Gly-Arg-AMC (Bachem, Bubendorf, Switzerland). Fluorescence was monitored using the Fluoroskan Ascent fluorometer (ThermoLabsystems, Helsinki, Finland), and the lag time, peak thrombin, velocity index and area under the curve (ETP) were calculated using the Thrombinoscope® software (Thrombinoscope BV).
(§2) Normal plasma was spiked with inhibitory antibodies against factor VIII (Sanquin, VK34, 14 μg/ml), factor IX (Sanquin, 5F5, 20 μg/ml) or factor XI (Sanquin, mix of #203 and #175, 75 μg/ml). The effect of OKL-1111 was tested in thrombin generation assay using 1 pM tissue factor (TF). This model is representative for hemophilia A, B and C patients that have developed inhibitory antibodies against plasma-derived or recombinant factor VIII or IX or XI they are treated with.

[2] = tested on: normal human plasma pretreated with inhibitory antibodies against factor XI; assay: Thrombin generation in normal plasma spiked with inhibitory antibodies against factor XI; format: biochemical; conditions: mix of #203 and #175, 75 μg/ml; 1 pM TF
Experimental: as §1, §2

## O=C(O)CCCCCSCC1OC2OC3C(CSCCCCCC(=O)O)OC(OC4C(CSCCCCCC(=O)O)OC(OC5C(CSCCCCCC(=O)O)OC(OC6C(CSCCCCCC(=O)O)OC(OC7C(CSCCCCCC(=O)O)OC(OC8C(CSCCCCCC(=O)O)OC(OC9C(CSCCCCCC(=O)O)OC(OC1C(O)C2O)C(O)C9O)C(O)C8O)C(O)C7O)C(O)C6O)C(O)C5O)C(O)C4O)C(O)C3O (stereo not shown) [OKL-1111]
Hemophilia A mice; factor VIII 2.5 IU/kg plus OKL-1111 1 μmol/kg
  hemostasis compared to factor VIII alone: significantly higher
Hemophilia A mice; factor VIII 2.5 IU/kg plus OKL-1111 1 μmol/kg (designed to give 25 μM in plasma)
  number of clots formed over a 30 minute period: 7-9 clots
[1]
  thrombin generation in plasma with inhibitory antibodies against factor VIII: concentration-dependently stimulated thrombin generation
[2]
  thrombin generation in plasma with inhibitory antibodies against factor XI: concentration-dependently stimulated thrombin generation
